Reference: patent publication US10442773B2, “Amorphous letermovir and solid pharmaceutical formulations thereof for oral administration” (AICURIS ANTI-INFECTIVE CURES GMBH, priority 2013, dated 2019)
Several values for one entry are separate records, joined by “and”; a condition that tells them apart may be missing. Equal values may be shown once.

Key:
[1] = BET specific surface area analysis; type: physicochemical; conditions: for specific surface area: isolated API; for Specific Surface Area (SSA), m^2/g; BET value on average: nitrogen adsorption at 77 K; for Specific Surface Area (SSA), m^2/g: further BET measurement accompanying the particle size analysis (Table 23)
Protocol: BET specific surface area analysis was conducted on various batches of precipitated amorphous Letermovir. The same was done on a batch of Letermovir (named BXR3GBL) produced according to Example 11 of WO 2006/133822. The results of the analysis are shown below in Table 22: The particular BET method is characterized by the following parameter: Principle: Nitrogen adsorption at 77 K; method according to Brunauer, Emmett and Teller Method: volumetric method (method II) according to USP <846> Instrument: Tristar 3000/VacPrep 061 (Micromeritics) Sample mass: approximately 1.5-2.5 g Sample preparation: degassing for 2 h at 40° C. under vacuum (final vacuum <2.7 Pa) Pressure range p/p0: 0.05-0.15 (3 data points).

[2] = Laser diffraction particle size distribution analysis (Mastersizer 2000); type: physicochemical; conditions: Mastersizer 2000, dry dispersion, average of four analyses
Protocol: Laser diffraction particle size distribution analysis was conducted on two batches of precipitated amorphous Letermovir of the invention and on a batch of amorphous Letermovir (referred to as BXR3GBL) produced according to Example 11 of WO 2006/133822 while using laser diffraction technique of the Mastersizer 2000 (Malvern Instruments). The results of the analysis are presented in FIG. 9(a-c) in the form of three particle size distribution charts and the numeric part of the results is shown below in Table 23: The particular PSD analysis method is characterized by the following parameter: Device: Mastersizer 2000 with dry dispersion Modus: Fraunhofer; weight-in quantity: 0.3-0.4 g Measurement time: 20 seconds Background time: 6 seconds Obscuration limits: 0.5 to 6% Sample tray: micro volume; small sieve with balls Feed rate: 45-55% Dispersive pressure: 2.5 bar Four independent analyses were performed and the results were averaged.

| SMILES | Specific Surface Area (SSA), m^2/g; BET value on average [1] | also measured |
| --- | --- | --- |
| COc1cccc(N2CCN(C3=Nc4c(F)cccc4[C@H](CC(=O)O)N3c3cc(C(F)(F)F)ccc3OC)CC2)c1 [roller dried Letermovir] | – | specific surface area [1]: < 1 m^2/g |
| COc1cccc(N2CCN(C3=Nc4c(F)cccc4[C@H](CC(=O)O)N3c3cc(C(F)(F)F)ccc3OC)CC2)c1 [Batch 40479200] | 1.30 m^2/g | – |
| COc1cccc(N2CCN(C3=Nc4c(F)cccc4[C@H](CC(=O)O)N3c3cc(C(F)(F)F)ccc3OC)CC2)c1 [Batch 40479463] | 1.45 m^2/g | – |
| COc1cccc(N2CCN(C3=Nc4c(F)cccc4[C@H](CC(=O)O)N3c3cc(C(F)(F)F)ccc3OC)CC2)c1 [Batch 40479326] | 1.76 m^2/g | – |
| COc1cccc(N2CCN(C3=Nc4c(F)cccc4[C@H](CC(=O)O)N3c3cc(C(F)(F)F)ccc3OC)CC2)c1 [Batch 40483517] | 1.87 m^2/g and 1.83 m^2/g | – |
| COc1cccc(N2CCN(C3=Nc4c(F)cccc4[C@H](CC(=O)O)N3c3cc(C(F)(F)F)ccc3OC)CC2)c1 [Batch 40483516] | 1.28 m^2/g | – |
| COc1cccc(N2CCN(C3=Nc4c(F)cccc4[C@H](CC(=O)O)N3c3cc(C(F)(F)F)ccc3OC)CC2)c1 [Batch 40479248] | 1.45 m^2/g | – |
| COc1cccc(N2CCN(C3=Nc4c(F)cccc4[C@H](CC(=O)O)N3c3cc(C(F)(F)F)ccc3OC)CC2)c1 [Batch 40479201] | 1.97 m^2/g | – |
| COc1cccc(N2CCN(C3=Nc4c(F)cccc4[C@H](CC(=O)O)N3c3cc(C(F)(F)F)ccc3OC)CC2)c1 [Batch BXR3GBL, reference compound] | 0.64 m^2/g | Specific Surface Area (SSA), m^2/g [1]: 1.55 m^2/g; Particle Size Median Value d(0.5), μm [2]: 21.607 μm |
| COc1cccc(N2CCN(C3=Nc4c(F)cccc4[C@H](CC(=O)O)N3c3cc(C(F)(F)F)ccc3OC)CC2)c1 [Batch 40483515] | 1.03 m^2/g | – |
| COc1cccc(N2CCN(C3=Nc4c(F)cccc4[C@H](CC(=O)O)N3c3cc(C(F)(F)F)ccc3OC)CC2)c1 [Batch 40479434] | 1.48 m^2/g | – |
| COc1cccc(N2CCN(C3=Nc4c(F)cccc4[C@H](CC(=O)O)N3c3cc(C(F)(F)F)ccc3OC)CC2)c1 [Batch 1300735] | – | Specific Surface Area (SSA), m^2/g [1]: 2.18 m^2/g; Particle Size Median Value d(0.5), μm [2]: 8.880 μm |
| COc1cccc(N2CCN(C3=Nc4c(F)cccc4[C@H](CC(=O)O)N3c3cc(C(F)(F)F)ccc3OC)CC2)c1 [Batch 40474375] | 1.46 m^2/g | – |
| COc1cccc(N2CCN(C3=Nc4c(F)cccc4[C@H](CC(=O)O)N3c3cc(C(F)(F)F)ccc3OC)CC2)c1 [Batch 40475297] | 1.25 m^2/g | – |
| COc1cccc(N2CCN(C3=Nc4c(F)cccc4[C@H](CC(=O)O)N3c3cc(C(F)(F)F)ccc3OC)CC2)c1 [Batch 40479198] | 2.09 m^2/g | – |
| COc1cccc(N2CCN(C3=Nc4c(F)cccc4[C@H](CC(=O)O)N3c3cc(C(F)(F)F)ccc3OC)CC2)c1 [Batch 40479202] | 1.69 m^2/g | – |
| COc1cccc(N2CCN(C3=Nc4c(F)cccc4[C@H](CC(=O)O)N3c3cc(C(F)(F)F)ccc3OC)CC2)c1 [Batch 1300750] | – | Specific Surface Area (SSA), m^2/g [1]: 2.1 m^2/g; Particle Size Median Value d(0.5), μm [2]: 9.383 μm |
| COc1cccc(N2CCN(C3=Nc4c(F)cccc4[C@H](CC(=O)O)N3c3cc(C(F)(F)F)ccc3OC)CC2)c1 [Batch 40474463] | 1.23 m^2/g | – |
| COc1cccc(N2CCN(C3=Nc4c(F)cccc4[C@H](CC(=O)O)N3c3cc(C(F)(F)F)ccc3OC)CC2)c1 [precipitated Letermovir, (S)-{8-fluoro-2-[4-(3-methoxyphenyl)piperazin-1-yl]-3-(2-methoxy-5-trifluormethylphenyl)-3,4-dihydroquinazolin-4-yl}acetic acid] | – | specific surface area [1]: 1.2-2 m^2/g |
| COc1cccc(N2CCN(C3=Nc4c(F)cccc4[C@H](CC(=O)O)N3c3cc(C(F)(F)F)ccc3OC)CC2)c1 [Batch 40479189] | 1.26 m^2/g | – |
